Test results from US3932374A, “Bleomycinic acid and process for preparing thereof” (Zaidan Hojin Biseibutsu Kagaku Kenkyu Kai, priority 1971, dated 1976).
Like-named read-outs stand apart in the source and are kept apart here.

Legend:
Mycobacterium 607 [1] = conditions: cup test; standard value; cited from earlier work
Mycobacterium 607 [2] = assay: cup test, antimicrobial activity to Mycobacterium 607; type: cell-based
Description: The endpoint of the hydrolysis reaction can be determined by a reaction in antimicrobial activity of the bleomycin substrate as measured by conventional cup tests using Mycobacterium 607, or by a change in the Rf value during thin layer chromatography.

solubility in solvents = type: physicochemical
HeLa (S3 bb cell line) = conditions: third day
Description: wherein the inhibitory effect = [formula] Co: relative number of cell on the first day t3 : relative number of cell on the third day after the addition of a bleomycin (3 mcg/ml in final)
C3 : relative number of cell in negative control on the third day

ICR-JCL male mice = conditions: 10 mice, 10 mg./kg. i.v., 10 days
Description: The mice were bred for 5 weeks after the final administration and were then dissected. The right and left lungs were observed by microscopic examination.

| Compound | antimicrobial activity to Mycobacterium 607 (Mycobacterium 607 [2]) | Inhibitory effect (HeLa (S3 bb cell line); 1.5 mcg/ml.) | Inhibitory effect (HeLa (S3 bb cell line); 3 mcg/ml.) | Inhibitory effect (cell culture of Yoshida; 0.625 mcg/ml) | Inhibitory effect (cell culture of Yoshida; 1.25 mcg/ml) | Inhibitory effect (cell culture of Yoshida; 2.5 mcg/ml) | Inhibitory effect (cell culture of Yoshida; 5 mcg/ml) | other results |
| --- | --- | --- | --- | --- | --- | --- | --- | --- |
| Cc1c(N)nc([C@H](CC(N)=O)NC[C@H](N)C(N)=O)nc1C(=O)N[C@H](C(=O)N[C@H](C)[C@@H](O)[C@H](C)C(=O)N[C@H](C(=O)NCCc1nc(-c2nc(C(=O)NCCC[S+](C)C)cs2)cs1)[C@@H](C)O)[C@@H](O[C@@H]1O[C@@H](CO)[C@@H](O)[C@H](O)[C@@H]1O[C@H]1O[C@H](CO)[C@@H](O)[C@H](OC(N)=O)[C@@H]1O)c1c[nH]cn1.[Br-] [bleomycin A2, 3-dimethylsulfopropylamino-bleomycin] |  |  |  |  |  |  |  | antimicrobial activity, standard (Mycobacterium 607 [1]): 1000 μ/mg |
| Cc1c(N)nc(C(CC(N)=O)NCC(N)C(N)=O)nc1C(=O)NC(C(=O)NC(C)C(O)C(C)C(=O)NC(C(=O)NCCc1nc(-c2nc(C(=O)O)cs2)cs1)C(C)O)C(OC1OC(CO)C(O)C(O)C1OC1OC(CO)C(O)C(OC(N)=O)C1O)c1cnc[nH]1 (centres unmarked) [bleomycinic acid] | 159 μ/mg |  |  |  |  |  |  |  |
| hydrochloride of bleomycinic acid |  |  |  |  |  |  |  | solubility in ethanol, ethyl acetate, acetone and ether (solubility in solvents; ethanol, ethyl acetate, acetone, ether): insoluble; solubility in methanol, acetic acid, dimethylsulfoxide (solubility in solvents; methanol, acetic acid, dimethylsulfoxide): sparingly soluble; solubility in water (solubility in solvents; water): soluble |
| benzylamino-bleomycin | 3250 μ/mg | 38 | 73 | 11.1 | 28.2 | 55.4 | 83.5 | Inhibitory effect (HeLa (S3 bb cell line); 6 mcg/ml.): 92 |
| Cc1c(N)nc([C@H](CC(N)=O)NC[C@H](N)C(N)=O)nc1C(=O)N[C@H](C(=O)N[C@H](C)[C@@H](O)[C@H](C)C(=O)N[C@H](C(=O)NCCc1nc(-c2nc(C(=O)NCCCCN=C(N)N)cs2)cs1)[C@@H](C)O)[C@@H](O[C@@H]1O[C@@H](CO)[C@@H](O)[C@H](O)[C@@H]1O[C@H]1O[C@H](CO)[C@@H](O)[C@H](OC(N)=O)[C@@H]1O)c1cnc[nH]1 [bleomycin B2, 4-guanidinobutylamino-bleomycin] | 3094 μ/mg | 33 | 64 | 8.6 | 34.0 | 56.0 | 74.9 | antimicrobial activity to Mycobacterium 607 (Mycobacterium 607 [2]; listed as bleomycin): 3015 μ/mg; Total, mice with degree of fibrosis ++ (ICR-JCL male mice; Lung L): 1; Total, mice with degree of fibrosis - (ICR-JCL male mice; Lung L): 5; Total, mice with degree of fibrosis ± (ICR-JCL male mice; Lung L): 1; Total, mice with degree of fibrosis ± (third Total column) (ICR-JCL male mice; Lung L): 3; Total, mice with degree of fibrosis ++ (ICR-JCL male mice; Lung R): 0; Total, mice with degree of fibrosis - (ICR-JCL male mice; Lung R): 4; Total, mice with degree of fibrosis ± (ICR-JCL male mice; Lung R): 3; Total, mice with degree of fibrosis ± (third Total column) (ICR-JCL male mice; Lung R): 3 |
